In patent US8148328B2, “Salicylanilides enhance oral delivery of therapeutic peptides” (The Regents of the University of California, priority 2006, dated 2012):
Structures can show the parent of a compound that is named as a salt. Where two headings read alike, the source gives them in different places. Each block holds one compound with its values, some of them ahead of it. Residues, ends and D or L forms follow the SMILES beside them. No end group written: not given here.

Columns and labels:
[1] = tested on: LDL-induced monocyte chemotactic activity in cultures of human aortic endothelial cells; experiment: HDL-inflammatory index of HDL from treated apoE null mice; assay type: in vivo; conditions: for HDL-inflammatory index, potency relative to niclosamide: FIG. 24: salicylanilide 10:1 with 5 μg D-4F or L-4F by stomach tube, 6 hours
Description: 11-month-old female apoE null mice were fasted during the day. At night the mice were provided chow containing or not containing additions. In the first experiment the mice were given chow alone (C) or chow supplemented with 8.0 micrograms of Niclosamide (2′,5-Dichloro-4′-nitrosalicylanilide; Niclosamide, Sigma catalog number N-3510 Page 1711 2006-2007 catalog Empirical Formula (Hill Notation): C13H8C12N2O4 Formula Weight: 327.12, CAS Number: 50-65-7 Batch 105K0666 EC 200-056-8) per gram of chow (D) or chow supplemented with 2.0 micrograms of L-4F (free base) per gram of chow (E), or chow supplemented with 8.0 micrograms of Niclosamide together with 2.0 micrograms of L-4F (free base) per gram of chow (F). The mice were only given one gram of chow per mouse (n=8 mice per group) so that they would consume all of the chow. In the morning after the chow was consumed the mice were bled and their plasma was sucrose cryopreserved and fractionated by FPLC and the HDL-containing fractions were tested for their ability to inhibit monocyte chemotactic activity induced by a standard control human LDL (A) in cultures of human aortic endothelial cells. The mouse HDL (C-J) was also compared to a standard human HDL (B) that was added at the same concentrations as the mouse HDL. The resulting monocyte chemotactic activity was normalized to the standard control LDL added alone (A). The results are plotted as the HDL-inflammatory index, which is the result of dividing the monocyte chemotactic activity measured for each condition by the monocyte chemotactic activity obtained by the standard control LDL added alone, which was normalized to 1.0 as described previously (Navab et al. (2004) J Lipid Res, 45: 993-1007).
A second experiment was performed as described for the first experiment with 8 mice in each group except that the additions to the chow were different. Chow alone in the second experiment (G) was compared to chow supplemented with 100 micrograms of Niclosamide per gram of chow (H), or supplemented with 10 micrograms of L-4F (free base) per gram of mouse chow (I), or supplemented with 10 micrograms of L-4F (free base) together with 100 micrograms of Niclosamide per gram of chow (J). As in the first experiment the mice were only given one gram of chow per mouse so that they would consume all of the chow. In the morning this second group of mice were bled and their HDL tested in the human artery wall cell culture together with the HDL from the first experiment.
Ten mg of Niclosamide was placed in a glass-glass homogenizer with mortar and round bottom pestle (Kontes Dounce Tissue grinder, K885300-0015 available from Fisher, VWR) and 200 μL of ethanol was added. The Niclosamide ethanol mixture was homogenized using 2-3 strokes and distilled water was added and the mixture further homogenized using 5-10 strokes and the volume was adjusted to 10 mL with distilled water. Serial dilutions of this mixture were made using distilled water to give the micrograms of Niclosamide shown on the x-axis, which were contained in 100 μL. L-4F (free base) was diluted with water to give 10 μg per 100 μL of water. One hundred microliters of the Niclosamide solution was given by stomach tube to each mouse in each group of twelve-month-old non-fasting female apoE null mice (n=4 per group) and immediately followed by 100 μL containing 10 μg of L-4F (free base) in water. The mice were fasted and after 7 hours they were bled and their plasma was sucrose cryopreserved. The plasma was fractionated by FPLC and the HDL-containing fractions were tested for their ability to inhibit the induction of monocyte chemotactic activity by a standard control human LDL, which was added to cultures of human aortic endothelial cells. The standard control human LDL was also added by itself or with a standard control human HDL. The values obtained by the standard control human LDL alone were normalized to 1.0. […]

[2] = tested on: monocyte chemotactic activity in cultures of human aortic endothelial cells; experiment: LDL-inflammatory index of LDL from treated apoE null mice; assay type: in vivo; conditions: FIG. 25: co-administered with D-4F or L-4F, mice of FIG. 24
[3] = mouse, in vivo
[4] = tested on: aortic sinus lesion area; experiment: Lesion regression in old apoE null mice, six months in chow; assay type: in vivo; conditions: FIGS. 32-34: niclosamide 2 mg and/or L-4F 200 μg/mouse/day in chow, pravastatin 50 μg/mouse/day, 26 weeks
Description: Ninety-five female apoE null mice age 9.5 months from the UCLA breeding colony were identified. Twenty-three were sacrificed at time Zero (Group I) to establish lesion area at the start of the experiment. The remainder of the mice were divided into three groups of 24 mice each and the following additions were made to the chow for each group: Group II: Niclosamide at 2,000 micrograms/mouse/day; Group III: L-4F at 200 micrograms/mouse/day; Group IV: L-4F at 200 micrograms/mouse/day plus Niclosamide at 2,000 micrograms/mouse/day. All groups received 50 micrograms/mouse/day of pravastatin in their drinking water. At the veterinarian's request because of fighting and/or ulcerative dermatitis mice were euthanized prior to the end of the experiment as follows: 6 mice from Group II; 5 mice from Group III; 4 mice from Group IV. After six months the remaining mice were sacrificed and aortic sinus lesion area was determined as described previously (Id.).
In still another experiments, nine and half months-old female apoE null mice were divided into four groups: Group I was sacrificed to establish base line lesion area (Time Zero). Group II received niclosamide at 2 mg/mouse/day in rodent chow. Group III received L-4F at 200 μg/mouse/day in rodent chow. […] After 26 weeks the mice were sacrificed and aortic sinus lesion area was determined.

[5] = tested on: LDL-induced monocyte chemotactic activity in cultures of human aortic endothelial cells; conditions: mice, oral, without niclosamide; human artery wall cells (Navab 2002); cited from earlier work
[6] = mouse, in vivo; cited from earlier work
[7] = Solubilization of niclosamide in water with or without L-4F; assay type: physicochemical; conditions: even when added in ethanol and homogenized
[8] = cited from earlier work; for solubility in water: 20° C., ethanolamine salt in distilled water
[9] = mouse, in vivo, 100 ug
[10] = mouse, in vivo; remark: listed apart in the source
[11] = tested on: inflammatory response induced by the action of HPODE oxidizing PAPC in cocultures of human artery wall cells; conditions: apoE null mice, drinking water 24 hours; D-4F 1 μg/ml, atorvastatin or pravastatin 0.05 mg/ml; cited from earlier work
[12] = Fate of peptides after an oral dose (degradation, association with HDL, clearance from the circulation)
[13] = FIG. 8: female apoE null mice, overnight in chow, niclosamide 8 or 100 μg and/or L-4F 2 or 10 μg per gram of chow
[14] = FIG. 22: 10 μg peptide with or without niclosamide 10:1, pH 8.0, stomach tube, 7 hours

Compound: O=C(Nc1ccc([N+](=O)[O-])cc1Cl)c1ccc(Cl)cc1O [BP-1001]
HDL-inflammatory index, potency relative to niclosamide [1]: more potent than niclosamide
LDL-inflammatory index, potency relative to niclosamide [2]: more potent

Compound: O=C(Nc1ccc([N+](=O)[O-])cc1Cl)c1ccc(O)c(Cl)c1 [BP-1012]
HDL-inflammatory index, potency relative to niclosamide [1]: more potent than niclosamide
LDL-inflammatory index, potency relative to niclosamide [2]: more potent

time after an oral dose at which essentially non-detectable in the circulation [3]: 6 h
Compound: CC(=O)N[C@@H](CC(=O)O)C(=O)N[C@@H](Cc1c[nH]c2ccccc12)C(=O)N[C@@H](Cc1ccccc1)C(=O)N[C@@H](CCCCN)C(=O)N[C@@H](C)C(=O)N[C@@H](Cc1ccccc1)C(=O)N[C@@H](Cc1ccc(O)cc1)C(=O)N[C@@H](CC(=O)O)C(=O)N[C@@H](CCCCN)C(=O)N[C@H](C(=O)N[C@@H](C)C(=O)N[C@@H](CCC(=O)O)C(=O)N[C@@H](CCCCN)C(=O)N[C@@H](Cc1ccccc1)C(=O)N[C@@H](CCCCN)C(=O)N[C@@H](CCC(=O)O)C(=O)N[C@@H](C)C(=O)N[C@@H](Cc1ccccc1)C(N)=O)C(C)C [L-4F, Ac-D-W-F-K-A-F-Y-D-K-V-A-E-K-F-K-E-A-F-NH2] (Ac-DWFKAFYDKVAEKFKEAF-NH2)
association with pre-beta HDL and HDL ([3]; po): rapidly associates with pre-beta HDL and HDL
lesions in old apoE null mice versus time zero [4]: neither niclosamide nor L-4F without niclosamide significantly reduced lesions
HDL-inflammatory index [1, 13]: slightly but significantly improved
HDL-inflammatory index [1, 14]: only able to achieve this degree of efficacy when co-administered with niclosamide
protective capacity of HDL to inhibit LDL-induced monocyte chemotactic activity [5]: did not significantly alter
degradation after oral administration [6]: rapidly degraded

solubility in aqueous solutions [7]: relatively insoluble
Compound: O=C(Nc1ccc([N+](=O)[O-])cc1Cl)c1cc(Cl)ccc1O [Niclosamide, 2′5-dichloro-4′-nitrosalicylanilide]
lesions in old apoE null mice versus time zero [4]: neither niclosamide nor L-4F without niclosamide significantly reduced lesions
HDL-inflammatory index [1, 13]: ineffective
HDL-inflammatory index ([1]; FIG. 24: salicylanilide administered without the peptides): neither niclosamide nor the new salicylanilides were anti-inflammatory
solubility in water [8]: 5 to 8 µg/mL
solubility in acetone [8]: soluble in acetone
solubility in ether, ethanol and chloroform [8]: sparingly soluble
stability in tablets ([8]; moist environments): undergoes a biodegradation

Cmax [9]: ~150 ng/mL
duration of (low) plasma levels [10]: no more than 5 minutes
persistence of plasma level at a lower level [10]: up to four hours
persistence of the Cmax plasma level [10]: persisted for more than an hour
Compound: CC(=O)N[C@@H](CC(=O)O)C(=O)N[C@@H](Cc1c[nH]c2ccccc12)C(=O)N[C@@H](Cc1ccccc1)C(=O)N[C@@H](CCCCN)C(=O)N[C@@H](C)C(=O)N[C@@H](Cc1ccccc1)C(=O)N[C@@H](Cc1ccc(O)cc1)C(=O)N[C@@H](CC(=O)O)C(=O)N[C@@H](CCCCN)C(=O)N[C@H](C(=O)N[C@@H](C)C(=O)N[C@@H](CCC(=O)O)C(=O)N[C@@H](CCCCN)C(=O)N[C@@H](Cc1ccccc1)C(=O)N[C@@H](CCCCN)C(=O)N[C@@H](CCC(=O)O)C(=O)N[C@@H](C)C(=O)N[C@@H](Cc1ccccc1)C(N)=O)C(C)C [^14C-L-4F] (Ac-DWFKAFYDKVAEKFKEAF-NH2; N-terminus and C-terminus assumed)
HDL inflammatory index ([1]; FIG. 28: 10 μg 14C-L-4F with 100 μg niclosamide, 5 hours): biologically active when given with niclosamide

Compound: CC(C)c1c(C(=O)Nc2ccccc2)c(-c2ccccc2)c(-c2ccc(F)cc2)n1CC[C@@H](O)C[C@@H](O)CC(=O)O [atorvastatin, reference compound]
HDL function [11]: did not improve HDL function

Compound: O=C(Nc1ccc([N+](=O)[O-])cc1Cl)c1cc(Cl)ccc1O [ethanolamine salt, 5-chloro-salicyl-(2-chloro-4-nitro) anilide 2-aminoethanol salt]
solubility in water [8]: 180 to 280 µg/mL

Compound: D-4F: 4F (SEQ ID NO:5) where one or more residues are D form amino acids (DWFKAFYDKVAEKFKEAF; also: one or more residues D-form, places not given here)
association with pre-beta HDL and HDL ([12]; after an oral dose): rapidly associates with pre-beta HDL and HDL
time after an oral dose at which essentially non-detectable in the circulation ([12]; oral dose): 6 h
HDL-inflammatory index [1, 14]: able to render apoE null mouse HDL anti-inflammatory to a degree comparable to normal human HDL
HDL function [11]: did not significantly improve HDL function
